Assay results published in ChEMBL document CHEMBL4152259, “Benzoxazinone-containing 3,5-dimethylisoxazole derivatives as BET bromodomain inhibitors for treatment of castration-resistant prostate cancer” (Eur J Med Chem, 2018).

Legend:
LNCaP [1] = test: Antiproliferative activity against human LNCAP cells; assay type: functional, cell-based
LNCaP [2] = test: Antiproliferative activity against human LNCAP cells treated at 12 hrs post cell seeding measured at 72 to 144 hrs post cell seeding by Cell-Titer Glo assay; assay type: functional, cell-based
LNCaP C4-2B = test: Antiproliferative activity against human C4-2B cells treated at 12 hrs post cell seeding measured at 72 to 144 hrs post cell seeding by Cell-Titer Glo assay; assay type: functional, cell-based
[3] = molecular target: T1, Bromodomain-containing protein 4 (Homo sapiens, UniProt O60885)
Description: Binding affinity to His6-tagged human BRD4 bromodomain-1 (N44 to E168 residues) expressed in Escherichia coli BL21(DE3) assessed as change in melting temperature at 200 uM by SYPRO orange dye based fluorescence assay

[4] = molecular target: T1, Bromodomain-containing protein 4; test: Inhibition of His6-tagged human BRD4 bromodomain-1 (N44 to E168 residues) expressed in Escherichia coli BL21(DE3) using biotinylated-H4KAc4 as substrate by AlphaScreen assay
CWR22R = test: Antiproliferative activity against human 22Rv1 cells treated at 12 hrs post cell seeding measured at 72 to 144 hrs post cell seeding by Cell-Titer Glo assay; assay type: functional, cell-based
VCaP = test: Antiproliferative activity against human VCaP cells treated at 12 hrs post cell seeding measured at 72 to 144 hrs post cell seeding by Cell-Titer Glo assay; assay type: functional, cell-based

Row | Compound | ΔTm [3] | IC50 [4] | also measured
1 | CCNC(=O)C[C@@H]1N=C(c2ccc(Cl)cc2)c2cc(OC)ccc2-n2c(C)nnc21 [MOLIBRESIB] | – | – | IC50 (LNCaP [1]): 356 nM
2 | Cc1noc(C)c1-c1ccc2c(c1)OC(CC(C)C)C(=O)N2 (stereo not given) | 9.4 °C | 180 nM | IC50 (LNCaP [2]): 570 nM; IC50 (LNCaP C4-2B): 540 nM; IC50 (CWR22R): 6500 nM; IC50 (VCaP): 380 nM
3 | Cc1noc(C)c1-c1ccc2c(c1)OC(CC1CC1)C(=O)N2 (stereo not given) | 8.7 °C | 400 nM | IC50 (LNCaP [2]): 1030 nM; IC50 (LNCaP C4-2B): 590 nM; IC50 (CWR22R): 1940 nM; IC50 (VCaP): 410 nM
4 | Cc1noc(C)c1-c1ccc2c(c1)OC(c1ccccc1Cl)C(=O)N2 (stereo not given) | 5.1 °C | 490 nM | –
5 | CNC(=O)c1ccc(N2C(=S)N(c3ccc(C#N)c(C(F)(F)F)c3)C(=O)C2(C)C)cc1F [ENZALUTAMIDE] | – | – | IC50 (LNCaP C4-2B): 20800 nM; IC50 (VCaP): > 30000 nM
6 | Cc1noc(C)c1-c1ccc2c(c1)OC(C(C)(C)C)C(=O)N2 (stereo not given) | 7.9 °C | 270 nM | –
7 | Cc1noc(C)c1-c1ccc2c(c1)OC(C(C)C)C(=O)N2 (stereo not given) | 6.9 °C | 1170 nM | –
8 | Cc1noc(C)c1-c1ccc2c(c1)OC(c1ccc(Cl)c(Cl)c1)C(=O)N2 (stereo not given) | 5.7 °C | 4250 nM | –
9 | Cc1noc(C)c1-c1ccc2c(c1)OC(c1ccccc1C(F)(F)F)C(=O)N2 (stereo not given) | 5.4 °C | 1140 nM | –
10 | COC(=O)CN1C(=O)[C@@H](CC2CC2)Oc2cc(-c3c(C)noc3C)ccc21 | 8.9 °C | 360 nM | –
11 | Cc1noc(C)c1-c1ccc2c(c1)OC(Cc1ccccc1)C(=O)N2 (stereo not given) | 3 °C | > 20000 nM | –
12 | Cc1noc(C)c1-c1ccc2c(c1)OC(c1cccc(F)c1)C(=O)N2 (stereo not given) | 7.5 °C | 620 nM | –
13 | Cc1noc(C)c1-c1ccc2c(c1)O[C@H](CC1CC1)C(=O)N2CCN(C)C | 8.4 °C | 860 nM | –
14 | Cc1noc(C)c1-c1ccc2c(c1)OC(CC1CCC1)C(=O)N2 (stereo not given) | 8.1 °C | 200 nM | –
15 | Cc1noc(C)c1-c1ccc2c(c1)OC(c1ccc(Cl)cc1)C(=O)N2 (stereo not given) | 5.4 °C | 880 nM | –
16 | Cc1noc(C)c1-c1ccc2c(c1)OC(c1cc(Cl)cc(Cl)c1)C(=O)N2 (stereo not given) | 6.3 °C | 1330 nM | –
17 | Cc1noc(C)c1-c1ccc2c(c1)OC(Cc1ccc(Cl)cc1)C(=O)N2 (stereo not given) | 2.1 °C | > 20000 nM | –
18 | CSCCC1Oc2cc(-c3c(C)noc3C)ccc2NC1=O (stereo not given) | 6.9 °C | 530 nM | –
19 | CCCC1Oc2cc(-c3c(C)noc3C)ccc2NC1=O (stereo not given) | 8.1 °C | 290 nM | –
20 | Cc1noc(C)c1-c1ccc2c(c1)OC(CC1CCCCC1)C(=O)N2 (stereo not given) | 6.9 °C | 1170 nM | –
21 | Cc1sc2c(c1C)C(c1ccc(Cl)cc1)=N[C@@H](CC(=O)Nc1ccc(O)cc1)c1nnc(C)n1-2 [BIRABRESIB] | – | – | IC50 (LNCaP [1]): 111 nM
22 | Cc1noc(C)c1-c1ccc2c(c1)OC(c1cccc(Cl)c1)C(=O)N2 (stereo not given) | 4.8 °C | 510 nM | –
23 | Cc1noc(C)c1-c1ccc2c(c1)O[C@H](CC1CC1)C(=O)N2C | 7.7 °C | 520 nM | –
24 | Cc1noc(C)c1-c1ccc2c(c1)OC(c1cccc(C(F)(F)F)c1)C(=O)N2 (stereo not given) | 3.3 °C | 2270 nM | –
25 | CCCCC1Oc2cc(-c3c(C)noc3C)ccc2NC1=O (stereo not given) | 7.8 °C | 200 nM | IC50 (LNCaP [2]): 820 nM; IC50 (LNCaP C4-2B): 590 nM; IC50 (CWR22R): 4520 nM; IC50 (VCaP): 1140 nM
26 | Cc1noc(C)c1-c1ccc2c(c1)OC(CC1CCCC1)C(=O)N2 (stereo not given) | 7.8 °C | 290 nM | –
27 | Cc1noc(C)c1-c1ccc2c(c1)O[C@H](CC1CC1)C(=O)N2CC(=O)O | 6.9 °C | 2120 nM | –
28 | Cc1noc(C)c1-c1ccc2c(c1)O[C@H](Cc1ccccc1)C(=O)N2 | 3.2 °C | 6070 nM | –
29 | Cc1noc(C)c1-c1ccc2c(c1)O[C@H](CC1CC1)C(=O)N2CC(=O)N(C)C | 6.9 °C | 3640 nM | –
30 | Cc1noc(C)c1-c1ccc2c(c1)O[C@@H](CC1CC1)C(=O)N2 | 3.9 °C | 3540 nM | –
